Test results: PubChem BioAssay AID1549 (Sanford-Burnham Center for Chemical Genomics, 2009)
Active and inactive are the calls of the source. How the calls were made is not given here.

Target: Influenza A virus M2 proton channel (A/TW/4845/1999 H1N1)
Assay: M2 proton channel binding, NMR based, influenza A virus H1N1 strain (AID 1549)
Details: NMR binding screen, M2 protein

SMILES | Kd
Cc1ccc(SCc2cc(=O)n3[nH]c(C)nc3n2)cc1 | > 4 mM (inactive)
O=C(O)c1csc2ccccc12 | > 4 mM (inactive)
NC(=O)c1ccccc1N1CCCCC1 | > 4 mM (inactive)
COC(=O)CSc1ncnc2c(C)csc12 | > 4 mM (inactive)
Cc1cc2nc(SCC(=O)O)nc(C)c2cc1C | > 4 mM (inactive)
N=C1/C(=C\c2ccco2)C(=O)N=C2SC=NN12 | > 4 mM (inactive)
S=C(NC1=NCCS1)Nc1ccccc1 | > 4 mM (inactive)
COC(=O)c1cccs1 | > 4 mM (inactive)
Cn1nnc2cc(CN)ccc21 | > 4 mM (inactive)
CC1(c2ccncc2)NC(=O)NC1=O (stereo unspecified) | > 4 mM (inactive)
CC(=O)c1cc(-c2nc3ccccc3n2C)n(C)c1 | > 4 mM (inactive)
CC(C)C1COc2cc3oc(=O)ccc3cc2O1 (stereo unspecified) | > 4 mM (inactive)
CC(N)C(=O)c1ccco1 (stereo unspecified) | > 4 mM (inactive)
COc1ccc(/C=C2\SC(N)=NC2=O)cc1 | > 4 mM (inactive)
COC(=O)CCC(C)[C@H]1CCC2C3C(C[C@H](O)[C@@]21C)[C@@]1(C)CC[C@@H](O)C[C@H]1C[C@H]3O (stereo partly specified) | > 4 mM (inactive)
O=c1[nH]cnc2nc[nH]c12 | > 4 mM (inactive)
C[C@@H]1CC[C@@]2(OC1)OC1C(O)C3C4CC[C@H]5C[C@H](O[C@@H]6O[C@H](CO)[C@H](O[C@@H]7O[C@H](CO)[C@@H](O)[C@H](O[C@@H]8OC[C@@H](O)[C@H](O)[C@H]8O)[C@H]7O[C@@H]7O[C@H](CO)[C@H](O)[C@H](O[C@@H]8O[C@H](CO)[C@@H](O)[C@H](O)[C@H]8O)[C@H]7O)[C@H](O)[C@H]6O)[C@H](O)C[C@]5(C)C4CC[C@]3(C)C1[C@@H]2C (stereo partly specified) | > 4 mM (inactive)
CSc1nsc(SCc2cnc(C)nc2N)n1 | > 4 mM (inactive)
CC1(C)SCC(C(=O)O)N1C=O (stereo unspecified) | > 4 mM (inactive)
O=C1CCC(=O)N1c1ccc(F)cc1 | > 4 mM (inactive)
Cc1nnsc1C(=O)Nc1ccc(C(N)=O)cc1 | > 4 mM (inactive)
Nc1ccnc(C(=O)O)c1 | > 4 mM (inactive)
Cn1cnc([N+](=O)[O-])c1Sc1ncnc2nc[nH]c12 | > 4 mM (inactive)
[O-][n+]1cc(O)c(CN2CCOCC2)c2ccccc21 | > 4 mM (inactive)

SMILES | Kd
Cc1cc(=O)n(CC(C)C)c(O)c1C#N | > 4 mM (inactive)
CCn1cnc2sc(C(=O)O)c(C)c2c1=O | > 4 mM (inactive)
Cc1cc(C)nc(NC(N)=NCc2ccco2)n1 | > 4 mM (inactive)
COCCOc1nc2ccccc2nc1C | > 4 mM (inactive)
O=C(/C(=N\O)n1cncn1)c1ccccc1Cl | > 4 mM (inactive)
COc1ccc(C(=O)O)cc1OC | > 4 mM (inactive)
Cc1ccc(-c2nnn(CC(=O)O)n2)cc1 | > 4 mM (inactive)
C=C1C2CC[C@@]3(C)[C@H](c4ccoc4)OC(=O)C[C@]13O[C@H]1CC(=O)C(C)(C)[C@H](C(OC(C)=O)C(=O)OC)[C@@]21C (stereo partly specified) | > 4 mM (inactive)
COC(=O)c1ccc(N2CCOCC2)nc1 | > 4 mM (inactive)
COC(=O)C[C@@H]1C2(C)C(=O)[C@@H](CC3C2CC[C@]2(C)C3CC(=O)O[C@H]2c2ccoc2)[C@H](OC(C)=O)C1(C)C (stereo partly specified) | > 4 mM (inactive)
NCc1ccc(S(N)(=O)=O)cc1 | > 4 mM (inactive)
CCOC(=O)c1snnc1-c1ccccc1 | > 4 mM (inactive)
O=C1CCC(C(=O)NCc2cccnc2)N1 (stereo unspecified) | > 4 mM (inactive)
Cc1ccc(-n2nnnc2SCC(N)=O)c(C)c1 | > 4 mM (inactive)
CC(=O)Nc1cccc(-c2n[nH]c(=S)n2C)c1 | > 4 mM (inactive)
COc1ccc(CN2CCOCC2)c(C)c1C | > 4 mM (inactive)
Cc1ccc2c(c1)CC[C@H]1CC(=O)CC[C@]21C | > 4 mM (inactive)
CC(=O)OCC(=O)[C@@]1(O)CCC2C3CC[C@@H]4C[C@H](OC(C)=O)CC[C@]4(C)C3C(=O)C[C@@]21C (stereo partly specified) | > 4 mM (inactive)
OCCCc1nc2ccc(C(F)(F)F)cc2[nH]1 | > 4 mM (inactive)
O=C(CC1SC(=O)NC1=O)Nc1nccs1 (stereo unspecified) | > 4 mM (inactive)
COC(=O)c1nc(-c2ccccc2)oc1N(C)C | > 4 mM (inactive)
COc1ccccc1NC(=O)c1ccc(C)s1 | > 4 mM (inactive)
NC(=O)CSCc1c(Cl)cccc1Cl | > 4 mM (inactive)
CCN1CCC(NC2CCC(O)CC2)CC1 (stereo unspecified) | > 4 mM (inactive)

SMILES | Kd
O=C(O)CN1C(=O)c2ccc(C(=O)O)cc2C1=O | > 4 mM (inactive)
CC1(C)C2CC[C@]3(C)C(C(=O)C=C4[C@H]5C[C@@](C)(C(=O)O)CC[C@]5(C)CC[C@]43C)[C@@]2(C)CC[C@@H]1O (stereo partly specified) | > 4 mM (inactive)
NC(=O)C1CCN(C(=O)CN2CCc3ccccc32)CC1 | > 4 mM (inactive)
O=c1c(-c2ccccc2)coc2cc(O)cc(O)c12 | > 4 mM (inactive)
O=C1CSC2=NCCCN12 | > 4 mM (inactive)
O=C(O)C1CC(=O)N(CCc2ccc(Cl)cc2)C1 (stereo unspecified) | > 4 mM (inactive)
Nc1ccc2c(c1)OCO2 | > 4 mM (inactive)
COc1cccc(N2CCNCC2)c1 | > 4 mM (inactive)
O=C(O)c1ccc(-n2cncn2)cc1 | > 4 mM (inactive)
CNC(=O)Nc1ccc(C(=O)NC)cc1 | > 4 mM (inactive)
O=C(COc1ccccc1O)NCCO | > 4 mM (inactive)
COC(=O)Nc1nc2c(s1)CCCC2 | > 4 mM (inactive)
Cc1ccccc1NC(=O)CSc1ccnc(=O)[nH]1 | > 4 mM (inactive)
O=C(O)c1onc2ccccc12 | > 4 mM (inactive)
COc1ccc(/C=C/c2cc(O)cc(O)c2)cc1 | > 4 mM (inactive)
CC(C)C(=O)NCC(c1ccco1)N1CCOCC1 (stereo unspecified) | > 4 mM (inactive)
O=C(Nc1ccc(F)cc1F)c1ccco1 | > 4 mM (inactive)
COC(=O)[C@@H]1OC(=O)C2OC23[C@@]1(C)CCC1[C@]2(C)C(C[C@H](O)[C@]13C)C(C)(C)[C@H](OC(C)=O)C[C@@H]2OC(C)=O (stereo partly specified) | > 4 mM (inactive)
O=C1c2ccccc2C(=O)N1CCc1ccccn1 | > 4 mM (inactive)
O=C(O)c1cccc(N2C(=O)C3CC=CCC3C2=O)c1 (stereo unspecified) | > 4 mM (inactive)
O=C(O)c1ccccc1C(=O)Nc1ccccc1 | > 4 mM (inactive)
Clc1ccccc1-c1nc(-c2cccnc2)no1 | > 4 mM (inactive)
COc1c2c(cc3c1OCO3)CCN(C)C2 | > 4 mM (inactive)
Cc1ccc(C(=O)Nn2cnnc2)c(Cl)c1 | > 4 mM (inactive)

SMILES | Kd
O=C(O)CCC1=C2c3ccccc3CCN2C(=O)CC1 | > 4 mM (inactive)
Cc1cccc(C)c1N1C(=O)CCC1=O | > 4 mM (inactive)
O=C(/C=C(\O)c1ccccc1)c1ccccc1O | > 4 mM (inactive)
Cc1occc1C(=O)NC1CCN(C)CC1 | > 4 mM (inactive)
CN1C(=O)C(Cc2c[nH]c3ccccc23)C(=O)N(C)C1=O | > 4 mM (inactive)
O=C1CC(N2CCC(O)CC2)C(=O)N1c1ccc(F)cc1 (stereo unspecified) | > 4 mM (inactive)
CCOc1ccc(Cl)cc1S(=O)(=O)N1CCCC1 | > 4 mM (inactive)
CNC(=S)Nc1ccc(OC)cc1C | > 4 mM (inactive)
CC(=O)Nc1ccc2c(c1)C(=O)N(C1CCCCC1)C2=O | > 4 mM (inactive)
O=C1NC(=S)NC(=O)C1=Cc1ccco1 | > 4 mM (inactive)
COc1ccc2nc(N)sc2c1 | > 4 mM (inactive)
COc1ccc(C2=CC(=O)C=CC2=O)cc1 | > 4 mM (inactive)
COC1=CC(=O)C=C(OC)C1=O | > 4 mM (inactive)
Nc1ccc(S(=O)(=O)Nc2nccs2)cc1 | > 4 mM (inactive)
S=C(NCc1cccnc1)NC1CC1 | > 4 mM (inactive)
Nc1ccc2ncsc2c1 | > 4 mM (inactive)
CC(C)(C)C(=O)N1CCCC1C(=O)O (stereo unspecified) | > 4 mM (inactive)
NC(=O)c1ccc(C(N)=O)c(-c2ccccc2)c1 | > 4 mM (inactive)
COc1cc(O)c(C(=O)c2ccccc2)cc1O | > 4 mM (inactive)
Cc1ccc(SCc2nc(-c3ccncc3)no2)cc1 | > 4 mM (inactive)
CCOC(=O)C1CCN(Cc2ccccc2)CC1 | > 4 mM (inactive)
O=C(Nc1ccc2c(c1)OCO2)c1cccc(F)c1 | > 4 mM (inactive)
CNc1ccccc1C(=O)O | > 4 mM (inactive)
O=C(c1ccc(F)cc1)N1CCOCC1 | > 4 mM (inactive)

SMILES | Kd
C=C1C2=CC(=O)O[C@@H](c3ccoc3)[C@]2(C)CCC1[C@@]1(C)C=CC(=O)C(C)(C)[C@@H]1CC(=O)OC (stereo partly specified) | > 4 mM (inactive)
COc1cc(O)ccc1C(C)=O | > 4 mM (inactive)
O=C(NC1=NCCS1)c1ccc([N+](=O)[O-])cc1Cl | > 4 mM (inactive)
Cc1cc(=O)[nH]c(NCc2cccnc2)n1 | > 4 mM (inactive)
CC(=O)Nc1ccc(S(N)(=O)=O)cc1 | > 4 mM (inactive)
NC(=O)C1CCCN1S(=O)(=O)c1ccc(F)cc1 (stereo unspecified) | > 4 mM (inactive)
COc1ccc(Cc2nccc3cc(OC)c(OC)cc23)cc1OC | > 4 mM (inactive)
CN=C(C)c1c(O)n(C)c(=S)n(C)c1=O | > 4 mM (inactive)
Cc1cc(N2CCN(C)CC2)ncn1 | > 4 mM (inactive)
CN1CCC(NC(=O)c2c(F)cccc2Cl)CC1 | > 4 mM (inactive)
C=C[C@@](C)(O)CCC1C(=C)C[C@H](O)C2C(C)(C)CCCC12C (stereo partly specified) | > 4 mM (inactive)
Cc1ccc(C)n1-c1ccc(C(=O)N2CCOCC2)cc1 | > 4 mM (inactive)
Cc1nc2ccccc2c(=O)n1N1C(=O)CCCC1=O | > 4 mM (inactive)
CCOc1ccc(C(=O)c2ccncc2)cc1 | > 4 mM (inactive)
CC(CO)NC(=O)C1C=C2c3cccc4[nH]cc(c34)C[C@H]2N(C)C1 (stereo partly specified) | > 4 mM (inactive)
CC1(C)C(=O)N(O)C(C)(C)C(=O)N1O | > 4 mM (inactive)
CC(=O)N(C)Cc1nc2ccccc2n1C | > 4 mM (inactive)
C=CCN1CC[C@]23c4c5ccc(O)c4OC2C(=O)CC[C@@]3(O)[C@H]1C5 (stereo partly specified) | > 4 mM (inactive)
CC(=O)Nc1ccc(S(=O)(=O)NCC2CCCO2)cc1 (stereo unspecified) | > 4 mM (inactive)
Oc1ccc(C(=S)N2CCOCC2)cc1 | > 4 mM (inactive)
